Test results from patent US20100266503A1, “Breast Cancer Methods, Medicaments and Agents” (priority 2007, published 2010).
Non-standard residues stand in square brackets, D forms with d. Residues, ends and D or L forms follow the SMILES beside them. *: point of attachment. Nle = CCCC[C@H](N)C(=O)O; Cbz = O=C(OCc1ccccc1)*

Tests used:
Assay type in all cases: cell-based
[1] = test system: MCF-7, T47D, ZR-75-1, MDA-MB-231 and Cal-51 breast cancer cell lines; experiment: Sulphorhodamine B Assay (SRB) of GSI1 on breast cancer cell lines
From the text: Graphs illustrating the effects of GSI1, at different concentrations, on proliferation in five breast cancer cell lines: (A) MCF-7 cells, (B) T47D cells, (C) ZR-75-1 cells, (D) MDA-MB-231 cells and (E) Cal- 51 cells.
The effect of GSI1 on cell proliferation was investigated further in a range of breast cancer cell lines, including both oestrogen receptor positive and negative cell lines, using the Sulphorhodamine B Assay (SRB) to measure cell numbers as illustrated in FIG. 7. […] 6,000 cells were plated in 6 replicates and allowed to adhere overnight. The media was replaced the following day with media containing GSI1 at different concentrations (100 nM, 250 nM, 500 nM, 750 nM, 1 μM, 2 μM, 5 μM, and 10 μM) apart from the control which was media+dimethyl sulphoxide (the solvent for GSI1 at a concentration equal to the highest in the GSI1 treated wells). One plate of cells was subjected to the Sulphorhodamine B Assay (SRB), which […] is an accepted measure of cell numbers, on this day, day 0. Briefly, cells were fixed by adding 100 μl/well of ice-cold 40% Trichloroacetic acid to each well and leaving for 60 mins. Plates were washed 5 times in running tap water (allowing water to fill wells indirectly) and stained with 100 μl/well SRB reagent (0.4% w/v SRB [Sigma-s-9012] in 1% Acetic acid) for 30 mins. Plates were washed 5 times in 1% acetic acid and left overnight to dry before solubilizing with 100 μl/well 10 mM Tris-base. Plates were subject to shaking for 30 mins and absorbance read at 492 nm. The remaining plates were then assayed at 2-day intervals up to day 10. […] Thus, it was evident that irrespective of the cell characteristics that 1 μM and higher concentrations were an effective killing dose and doses as low as 250 nM were inhibitory to cell proliferation.

[2] = test system: L226U19 and L226TS4 cells; experiment: SRB proliferation of GSI1 on normal L226 cell lines; conditions: tested at 10-80 μM; the two L226 cell lines
Experimental: (§1) Graphs illustrating the effects of GSI1, at different concentrations, on proliferation in four normal cell lines: (A) MCF-10A cells, (B) MCF-10A, (C) L226U19 cells and (D) L226TS4 cells.
(§2) The effect of GSI1 on proliferation in normal cell lines was investigated as, illustrated in FIG. 8. […] Therefore we repeated in all 3 normal lines (MCF-10A, L226U19 and L226TS4) at much higher concentrations (10 μM, 20 μM, 40 μM, 60 μM and 80 μM). 10 μM GSI1 was required to kill the MCF-10A cells and over 40 μM GSI1 was required to kill the two L226 cell lines. MCF-10A cells were cultured in DMEM (Invitrogen 11995-040), […] Insulin (Sigma, 11882), 20 ng/ml hEGF (Trevigen, 3443-050-01), 100 ng/ml Cholera Toxin (Sigma, C8052), 500 ng/ml Hydrocortisone (Sigma, H0888), 5% Horse Serum +100U/m1 penicillin, 0.1 mg/ml streptomycin, 2 mM L-glutamine at 37° C. in 5% CO2. L226U19 and TS4 cells were cultured in DME: F12 plus 10% FCS, 5 μg/ml insulin, 1 μg/ml Hydrocortisone, 10 ng/ml hEGF, 10 ng/ml Cholera toxin 100 U/ml penicillin, 0.1 mg/ml streptomycin, 2 mM L-glutamine at 37° C. in 5% CO2.

[3] = test system: MCF-10A cells; experiment: SRB proliferation of GSI1 on normal cell line MCF-10A
Experimental: as §1, §2

[4] = test system: Gamma Secretase Activity in breast cancer cell lines; experiment: Gamma-Secretase Activity Assay (R&D Systems kit) upon GSI1 treatment; conditions: 750 nM, 2 uM, 5 uM; 24 and 48 hours
Experimental: 1.5×10^6 cells were plated out and allowed to adhere overnight. The next day, cells were treated with increasing concentrations of GSI1 (750 nM, 2 uM, 5 uM) for 24 and 48 hours. We used the R&D Systems Gamma Secretase Activity Kit (as previously reported- ref from R&D Spec sheet) to determine Gamma Secretase Activity in breast cancer cell lines. Cells were washed twice with ice-cold PBS and all following steps, according to manufacturer's protocol were performed at 4 degrees. Briefly, cells were harvested in the Cell Extraction buffer, and incubated on ice for at least 10 minutes, to allow for maximal Buffer activity. Lysates were centrifuged at 10,000×g for 1 minute. Supernatants were collected with a total protein yield between 0.5-1 mg/ml. Pierce BCA Protein Assay was used to determine protein concentration in each sample. 200 microg of was used and incubated with the gamma-secretase fluorogenic substrate for 2 hours at 37° C. Fluorescence was measured at 355/460 nm.

[5] = test system: notch intracellular domain in MCF-7 cells; experiment: Staining for notch intracellular domain expression (surrogate marker for GS activity); conditions: 48 hours; Gefitinib 15 μM, U0126 10 μM, PD98059 10 μM
From the text: (A) GS activity as measured by a fluorescent assay in MCF7 breast cancer cell lines and MCF10A normal cell lines, with and without treatment with the ERK1/2 inhibitor U0126. (B) Sections of MCF7 breast cancer cell lines stained for notch intracellular domain expression (as a surrogate marker for GS activity). Shown are sections of cells untreated (NO), and cells treated with oestrogen (E2), faslodex (FAS), Gefitinib (Gef), GSI1, and the ERK1/2 inhibitors U0126 (U) and. PD98059 (PD). (C) Sections of MCF10A normal cell lines stained for notch intracellular domain expression. Shown are sections of cells untreated (NO), and cells treated with Gefitinib (Gef) and PD98059 (PD).
Cancer and normal cell lines were treated with oestrogen (E2), faslodex (FAS), Gefitinib (Gef 15 μM), GSI1, and the ERK1/2 inhibitors U0126 (U) (10 μM) and PD98059 (PD) (10 μM) for 48 hours and a fluorescent assay performed to measure GS activity. The figures show relative fluorescence therefore the amount of fluorescence in the treated cells relative to the untreated minus background (these figures are corrected for background).

CCCC[C@@H](C=O)NC(=O)[C@H](CC(C)C)NC(=O)[C@H](CC(C)C)NC(=O)OCc1ccccc1 [GSI1, Z-Leu-Leu-Nle-CHO] (Cbz-Leu-Leu-[Nle]-aldehyde)
effect of the 1 μM treatment on cell numbers ([1]; 1 μM, each cell line, assayed up to day 10): greatly reduced cell numbers
effective killing dose ([1]; irrespective of cell characteristics, up to day 10): ≥ 1 µM
concentration effective at killing / lethal to breast cancer cell lines ([1]; summary statement): 1 µM
lowest dose inhibitory to cell proliferation ([1]; up to day 10): 250 nM
concentration required to kill the cells [2]: over 40 μM
effect on proliferation ([3]; GSI1 100 nM to 10 μM): no effect on proliferation
concentration required to kill the cells ([3]; repeat at 10-80 μM): 10 µM
reduction in gamma-secretase activity [4]: dose dependant and already significant at the dose of 750 nM
notch intracellular domain expression localized to the nucleus compared to untreated cells [5]: appear to increase notch intracellular domain expression localized to the nucleus
